Assay results reported in paper PMC10979003, “Development and crystal structures of a potent second-generation dual degrader of BCL-2 and BCL-xL” (Nature Communications, 2024).
Residues, ends and D or L forms follow the SMILES beside them. *: point of attachment. Cbz = O=C(OCc1ccccc1)*

Tests used:
RS4 B-ALL cells = test: Potency against RS4 B-ALL cells in vitro; assay type: cell-based
MOLT-4 T-ALL cells = test: Potency against MOLT-4 T-ALL cells in vitro; assay type: cell-based; settings: Homo sapiens
human platelets = test: Potency against human platelets in vitro; assay type: cell-based; settings: Platelet; human platelets in vitro
BCL-xL/BCL-2 = test: Blocking of WH244-induced BCL-xL/BCL-2 degradation in Jurkat cells (immunoblot); assay type: cell-based, human; settings: for Effect of proteasome / NEDD8-activating enzyme inhibition on WH244-mediated degradation of BCL-xL and BCL-2: Jurkat cells
Method: The data are presented as mean ± s.d. from three replicate cell cultures in a representative experiment for Jurkat cells. h Left, WH244 induces polyubiquitination of WT, K22R BCL-2 and to some extent K17R but not K17/22R BCL-2 in 293T cells. 293T cells were co-transfected as indicated with Flag-BCL−2 WT or mutants and HA-tagged ubiquitin (HA-Ub) plasmids. After 36 h, cells were pretreated with MG132 (10 µM) for 2 h and then treated with or without WH244 (1 μM) for 5 h. The Flag-tagged proteins were immunoprecipitated (IP) and immunoblotted with HA or Flag antibody. Right, The input blot for this assay. Data are a representative of two independent experiments. Source data are provided as Source Data file.
A series of experiments were performed to assess the efficacy of WH244. […] These DC50 values were ~6.2 and 6.8-fold better than of 753b for BCL-xL (DC50 of 3.7 nM) and BCL-2 (DC50 of 50 nM), respectively. Also, WH244-mediated proteolysis of BCL-xL and BCL-2 was time-dependent with BCL-xL degrading faster than BCL-2 (Fig. 3c). […]
Cells were collected, washed once with ice-cold phosphate-buffered saline, pH 7.2 (PBS, cat. no. 20012027; Thermo Fisher Scientific) and lysed in RIPA lysis buffer (Cat. No. BP-115DG, Boston Bio Products, Ashland, MA, USA) supplemented with protease and phosphatase inhibitor cocktails (Cat. No. PPC1010, Sigma-Aldrich, St. Louis, MO, USA) through sonication. […] The protein concentration in the supernatants was determined using the Pierce BCA protein Assay kit (cat. no. 23225, Thermo Fisher Scientific). […] The membranes were blocked with non-fat dry milk (5% wt/vol) in 1×Tris- buffered saline-Tween-20 (TBST) for 1 h at room temperature, and were subsequently probed with primary antibodies at a pre-determined optimal concentration in non-fat dry milk (5% wt/vol in TBST) overnight at 4 °C. […] Following sufficient washing with TBST, the membranes were exposed with ECL Western Blotting Substrate (Bio-Rad), and the signal was detected using the ChemiDoc MP Imaging System (Bio-Rad) and quantified using the ImageJ (v1.53a) software from NIH. […]

BCL-xL and BCL-2 = system: BCL-xL and BCL-2; design: method as in Khan S et al. Nat Med, 25: 1938-1947, 2019; settings: ref Khan S et al. Nat Med, 25: 1938-1947, 2019; cited from earlier work

Compound: CC1(C)CCC(c2ccc(Cl)cc2)=C(CN2CCN(c3ccc(C(=O)NS(=O)(=O)c4ccc(N[C@H](CCN5CCOCC5)CSc5ccccc5)c(S(=O)(=O)C(F)(F)F)c4)cc3)CC2)C1 [ABT263, Navitoclax]
- IC50 (RS4 B-ALL cells): 38 nM
- IC50 (MOLT-4 T-ALL cells): 220 nM
- IC50 (human platelets): 310 nM
- Effect of pretreatment on degradation of BCL-xL and BCL-2 with WH244 (BCL-xL/BCL-2; two hours pretreatment, then six-hour WH244, Jurkat cells): completely blocked

Compound: Cc1ncsc1-c1ccc([C@H](C)NC(=O)[C@@H]2C[C@@H](O)CN2C(=O)[C@@H](NC(=O)CCCCCC(=O)N2CCN(CC[C@H](CSc3ccccc3)Nc3ccc(S(=O)(=O)NC(=O)c4ccc(N5CCN(CC6=C(c7ccc(Cl)cc7)CCC(C)(C)C6)CC5)cc4)cc3S(=O)(=O)C(F)(F)F)CC2)C(C)(C)C)cc1 [DT2216]
- Reduction in binding affinity to BCL-xL and BCL-2 on converting ABT263 into DT2216 (BCL-xL and BCL-2): about 8 fold

Compound: CC(C)C[C@@H](C=O)NC(=O)[C@H](CC(C)C)NC(=O)[C@H](CC(C)C)NC(=O)OCc1ccccc1 [MG132] (Cbz-Leu-Leu-Leu-aldehyde)
- Effect of proteasome / NEDD8-activating enzyme inhibition on WH244-mediated degradation of BCL-xL and BCL-2 (BCL-xL/BCL-2): abrogated

Compound: NS(=O)(=O)OC[C@@H]1C[C@@H](n2ccc3c(N[C@H]4CCc5ccccc54)ncnc32)C[C@@H]1O [MLN4924]
- Effect of proteasome / NEDD8-activating enzyme inhibition on WH244-mediated degradation of BCL-xL and BCL-2 (BCL-xL/BCL-2): abrogated
